For one assay, the system named is A. solani. Description: Field test against early blight in potato. The class given is in vivo, Alternaria solani. To be noted: sprayed at a usual concentration; for Morbidity (%) Avg.: average of 3 repeats. The method, then: (§1) Greenhouse and field tests of the fungicidal activity of the antagonistic microbe against various pathogenic fungi are conduced. For this, tomatoes are cultivated both in a greenhouse and a field. The tomatoes cultivated in a greenhouse and a field are treated with the spore suspension of the novel antagonistic microbe of the present invention and then exposed to pathogenic fungi, B. cinerea causing gray mold rot, C. fulvum causing leaf mold, and A. solani causing early blight, separately. The experiment is performed according to a randomized block design with three repeat measures. For comparison, procymidone for use in the control of gray mold rot, propineb for use in the control of leaf mold, and azoxystrobin for use in the control of early blight are employed. Morbidity is determined by examining the infection of all tomatoes one by one or by a sampling method. A significance test is carried out according to Duncan's multiple range test (DMRT).
To determine the fungicidal activity of the antagonistic microbe of the present invention against A. solani causing early blight, tomato was cultivated in a field. The cultivation was performed in the following schedule;
June 10 1st Treatment with the antagonistic microbe (spray amount 300 L/10 a)
July 5 2nd Treatment with the antagonistic microbe (spray amount 300 L/10 a)
July 13 Measuring mobidity
The experiment was performed in a randomized block design with three repeat measures. For comparison, azoxystrobin was sprayed as a control at a usual concentration. Morbidity was determined by examining the infection of 20 stocks of potatoes per repeat measure and attack frequency was calculated as in Experimental Example 4-2.

The test system of another assay is C. fulvum. Nature of the assay: Greenhouse test against leaf mold in tomato. The class given is in vivo, Cladosporium fulvum. The note with it: sprayed at a usual concentration; for Morbidity (%) Avg.: average of 3 repeats. As for the experimental part: as §1
To determine the fungicidal activity of the antagonistic microbe of the present invention against C. fulvum causing leaf mold, tomato plants were cultivated in the same manner as in Experimental Example 4-1 in a greenhouse with a dimension of 23.7 m in length, 7.0 m in width and 2.3 m in height. The experiment was performed in triplicate in a randomized block design. For comparison, propineb was sprayed as a control at a usual concentration. Morbidity was determined by examining the infection of 20 stalks of tomatoes per repeat measure and attack frequency was calculated according to the following equation: [formula]
wherein the factor is set to be: 0 when no leaves are infected; 1 when one forth of the total leaves are infected; 2 when half of the total leaves are infected and some of them are withered; 3 when three fourths of the total leaves are infected and half of them are withered; and 4 when two thirds are withered to death.

In another assay the test system is B. cinerea. Nature of the assay: Greenhouse test against tomato gray mold rot. The class given is in vivo, Botrytis cinerea. The note with it: sprayed at a usual concentration. As for the experimental part: as §1
To determine the fungicidal activity of the antagonistic microbe of the present invention against B. cinerea causing gray mold rot, tomato plants were cultivated in a greenhouse with a dimension of 23.7 m in length, 7.0 m in width and 2.3 m in height. The cultivation was performed according to the following schedule;
February 11 1st Treatment with the antagonistic microbe (spray amount 300 L/10 a)
February 20 2nd Treatment with the antagonistic microbe (spray amount 300 L/10 a)
March 2 3rd Treatment with the antagonistic microbe (spray amount 330 L/10 a)
March 22 Measuring mobidity
The tomato plants treated with the antagonistic microbe occupied an area of 5.4 m2 and the experiment was performed in triplicate in a randomized block design. For comparison, Procymidone was sprayed as a control at a usual concentration. The spore suspension of the antagonistic microbe prepared in Example 2 was added directly to water to bring about 500- and 1,000-fold dilutions of the population. Morbidity was determined by examining the infection of all tomato plants one by one. A significance test was performed according to Duncan's multiple range test (DMRT).

This is an account of results in patent US20040151698A1, “Microbial pesticide active against plant fungal pathogens and process for preparation thereof” (priority 2000, published 2004).

“And” between values parts separate entries of the source, which are not always exact repeats. Identical values can stand only once.

For `CO/C=C(/C(=O)OC)c1ccccc1Oc1cc(Oc2ccccc2C#N)ncn1` [Azoxytrobin, azoxystrobin], in the assay on A. solani, the “Control value(%)” value worked out at 57.6% and the “Morbidity (%) Avg.” value was 9.2 A %. The “Morbidity (%) Avg.” value with A. solani (listed as azoxystrobin) is 9.2%. For the same compound, the “Morbidity (%) 1” value in the assay on A. solani (repeat 1) worked out at 9.3%. Moreover, the “Morbidity (%) 2” value in the assay with A. solani (repeat 2) was 10.2%. For the same compound, the “Morbidity (%) 3” value in the assay with A. solani (repeat 3) is listed as 8.2%.

As to propineb, the “Control value(%)” value with C. fulvum turned out to be 42.9%. For the same compound, the figures for the “Morbidity (%) Avg.” value in the assay with C. fulvum and with C. fulvum (listed as propineb) were 12.0 B % and 21.9%, respectively. For the same compound, in the assay on C. fulvum (repeat 1), the “Morbidity (%) 1” value amounted to 10.3%. The “Morbidity (%) 2” value with C. fulvum (repeat 2) turned out to be 11.2%. Also, the “Morbidity (%) 3” value with C. fulvum (repeat 3) is listed as 14.5%.

With `CC12CC1(C)C(=O)N(c1cc(Cl)cc(Cl)c1)C2=O` (centres unmarked) [Procymidone], the “Control value(%)” value in the assay with B. cinerea worked out at 40.2%. Besides, the “Morbidity (%) Avg.” value in the assay on B. cinerea (average of 3 repeats) is 10.4% and 10.4 B %. Further, the “Morbidity (%) 1” value in the assay with B. cinerea (repeat 1) is recorded as 12.3%. Further, the “Morbidity (%) 2” value in the assay on B. cinerea (repeat 2) worked out at 10.6%. In the assay with B. cinerea (repeat 3), the “Morbidity (%) 3” value turned out to be 8.2%.
